Laboratory results published in patent US20230007838A1, “FUNCTIONALIZED LONG-CHAIN HYDROCARBON MONO- AND DI-CARBOXYLIC ACIDS AND THEIR USE FOR THE PREVENTION OR TREATMENT OF DISEASE” (ESPERVITA THERAPEUTICS, INC., priority 2019, published 2023).

Legend:
Hepa1-6 cells [1] = assay: Clonogenicity (colony formation) in Hepa1-6 liver cancer cells; assay type: cell-based, murine; conditions: Mus musculus, 168 h; Hepa1-6 (m), 7 days treatment
Method: (§1) Liver cancer cell lines Hep3B (human) and Hepa1-6 (murine) were maintained in either Eagle's Minimum Essential Medium (Corning) for Hep3B cells or High Glucose DMEM (Gibco) for Hepa1-6 cells, supplemented with 10% FBS (Gibco) and 1% Antibiotic-Antimycotic (Thermo-Fisher Scientific). Each cell line was seeded at 1000 cells/well in 12-well plates. The next day, the media were replaced, and cells were treated with 0 (vehicle control, 0.1% DMSO), 1, 5, 10, 30, 50, or 100 μM Compound I-32, I-61, I-1, or III-1 (final concentration of DMSO 0.1%) for 7 days. On day 9, the media were removed, and cells were fixed with 10% formalin (500 μl) for 10 minutes at room temperature, washed with 1×PBS and stained with crystal violet. After 10 minutes the excess stain was removed by rinsing three times with tap water. The plates were allowed to dry overnight, then the number of colonies (>50 cells) in each well were counted using light microscopy as described previously by Villiani L. A., et al.

Hep3B cells [2] = assay: Clonogenicity (colony formation) in Hep3B liver cancer cells; assay type: cell-based; conditions: Homo sapiens, 168 h, 7 days treatment
Method: as §1

Hepa1-6 cells [3] = assay: Cancer cell proliferation (PrestoBlue) in Hepa1-6 cells; assay type: cell-based, murine; conditions: Hepa1-6 (m), 72 hours
Method: (§2) Human liver cancer cells Hep3B and murine liver cancer cells Hepa1-6, respectively, were seeded at a cell density of 3000 cells/well in 96-well plates using either Eagle's Minimum Essential Medium (Corning) for Hep3B or Dulbecco's Modified Eagle's Medium (DMEM) High Glucose (Gibco) for Hepa1-6 cells, supplemented with 10% fetal bovine serum (FBS, Gibco) and 1% Antibiotic-Antimycotic solution (Thermo-Fisher Scientific). The next day, the cells were treated with 0 (vehicle control), 0.1, 0.5, 1, 5, 10, 30, 50 or 100 μM Compound I-32, I-61, I-1, or III-1 (final concentration of DMSO 0.1%) and were allowed to grow for 72 hours at 37° C. On day 5, 10 μl of PrestoBlue™ Cell Viability Reagent (Invitrogen) was added to each well and the plate was incubated at 37° C. for an additional 1-2 hours.

Hep3B cells [4] = assay: Cancer cell proliferation (PrestoBlue) in Hep3B cells; assay type: cell-based, human; conditions: Hep3B (h), 72 hours
Method: as §2

primary hepatocytes (m) = assay: De novo lipogenesis (DNL) in mouse primary hepatocytes; assay type: cell-based; conditions: Hepatocyte
Hep3B cells [5] = assay: Combination study with sorafenib or lenvatinib, proliferation in Hep3B cells; conditions: for Synergistic or additive effect on antiproliferative activity (CompuSyn analysis): in the presence of sorafenib or lenvatinib, FIGS. 8A-8D; for IC50: read-out: IC50 for inhibition of proliferation
Method: (§3) Hep3B (supplied by ATCC) or Hepa1-6 (supplied by ATCC) cells were seeded in 96-well plates at a density of 500 cells/well with complete media. […] Then, cells were incubated in an incubator for 72 h. On day 5, 10 μl of presto blue (Invitrogen, cat # A13261) cell viability reagent was added in each 96-well plate and incubated at 37° C. for 1-2 h. After incubation, fluorescence was measured with an excitation/emission wavelength of 560/590 nm. […] Proliferation IC50 values were calculated using a non-linear regression model in Graph pad Prism 8.

Hepa1-6 cells [6] = assay: Combination study with sorafenib or lenvatinib, proliferation in Hepa1-6 cells
Method: as §3

Compound | IC50 (Hepa1-6 cells [1]) [µM] | IC50 (Hep3B cells [2]) [µM] | Cancer Cell Proliferation % reduction vs control at 100 μM, Mean (Standard Deviation) (Hepa1-6 cells [3]) | Cancer Cell Proliferation % reduction vs control at 100 μM, Mean (Standard Deviation) (Hep3B cells [4]) | IC50 (primary hepatocytes (m)) [µM] | Synergistic or additive effect on antiproliferative activity (CompuSyn analysis) (Hep3B cells [5]; Hep3B cells) | IC50 (Hep3B cells [5]; Homo sapiens, Hep3B) [µM] | IC50 (Hepa1-6 cells [6]; Mus musculus, Hepa1-6, read-out: IC50 for inhibition of proliferation) [µM] | IC50 (Hep3B cells [5]; Hep3B cells, in the absence of a compound of the invention, separate experiment (data not shown)) [µM] | IC50 (Hepa1-6 cells [6]; read-out: IC50 for inhibition of proliferation, Hepa1-6 cells, in the absence of a compound of the invention, separate experiment (data not shown)) [µM]
CC(C)(CCCc1ccc(CCCC(C)(C)C(=O)O)cc1)C(=O)O [III-1, 1,4-Bis(4-carboxy-4-methylpentyl)benzene] | 61 | 55.6 | 15.7 (6.7) % | 29.7 (6.2) % | – | – | – | – | – | –
CC(C)(CCCCc1ccc(CCCCC(C)(C)C(=O)O)cc1)C(=O)O [Compound I-1, 6,6′-(1,4-phenylene)bis(2,2-dimethylhexanoic acid)] | 55.6 | 53.9 | 25.9 (5.7) % | 41.8 (8.4) % | 12.1 | – | – | – | – | –
CC(C)(CCCc1ccccc1CCCC(C)(C)C(=O)O)C(=O)O [Compound I-61, 5,5′-(1,2-Phenylene)bis(2,2-dimethylpentanoic acid)] | 73.4 | 57.3 | 21.8 (8.9) % | 35.7(5.8) % | – | synergistic inhibition | – | – | – | –
COc1cc2nccc(Oc3ccc(NC(=O)NC4CC4)c(Cl)c3)c2cc1C(N)=O [lenvatinib, reference compound] | – | – | – | – | – | – | 0.5 | 30 | – | –
CNC(=O)c1cc(Oc2ccc(NC(=O)Nc3ccc(Cl)c(C(F)(F)F)c3)cc2)ccn1 [sorafenib, reference compound] | – | – | – | – | – | – | – | – | 3 | 5
CC(C)(CCCCc1cccc(CCCCC(C)(C)C(=O)O)c1)C(=O)O [Compound I-32, 6-[3-(5-Carboxy-5-methylhexyl)-phenyl]-2,2-dimethylhexanoic acid] | 52.3 | 41.7 | 18.6 (3.1) % | 30.8 (2.6) % | 8.3 | synergistic inhibition | – | – | – | –
